The record followed here is publication PMC10343279, “The Cytotoxic Activity of Dammarane-Type Triterpenoids Isolated from the Stem Bark of Aglaia cucullata (Meliaceae)” (Molecules, 2023).

Molecules are shown by their SMILES. Like-named read-outs stand apart in the source and are kept apart here.

Assay type in all cases: cell-based
Data set [1] deals with MCF-7 breast cancer cell line. In words: PrestoBlue cytotoxicity assay against MCF-7 breast cancer cells. The conditions noted are these: MCF-7, PrestoBlue, 24 h incubation, run twice and averaged. Here is the method:
(§1) A normal cell (CV-1 kidney fibroblast cells) and two cancer cell lines (MCF-7 breast cancer and B16-F10 melanoma cells) were used to test the cytotoxic activities of compounds 1–7. In this experiment, two wavelengths (570 and 600 nm) were used because the measured cells were live cells so, to obtain the value/number of live cells, measurements were carried out at two wavelengths, namely before the reaction (blue) and after the reaction (pink) to produce a corrected absorbance value, which was interpreted as the number live cells after treatment. The results arising from the experiments, along with IC50 calculation graphs and cell morphology at each sample concentration, are presented in Figures S38–S58.
(§2) The PrestoBlue assay was utilized to conduct the cytotoxic bioassay. Additionally, Presto Blue reagent from Thermo Fisher Scientific, Uppsala, Sweden, was used to measure cell viability, which allowed for rapid evaluation of various resazurin-based cells. The rate of proliferation of the samples was then determined quantitatively through live-cell reduction capabilities. According to the findings, healthy cells kept a reduced habitat in their cytoplasm. By reducing resorufin (purple) with absorbance or fluorescence outputs, resazurin reduction (blue) acted as a viability indicator. The conversion correlated with the number of cells that were metabolically active. MCF-7, B16-F10, and CV-1 cell lines were cultured until they reached 70% confluence, and then they were removed, counted with a hemocytometer, and diluted with complete culture RPMI media. A total of 170,000 cells per well in 96-well plates with the samples were used. After an overnight growth period, the samples were treated with compounds 1–7 at escalating concentrations ([…]) in PBS, with 2% DMSO as the co-solvent. Additionally, cisplatin served as the positive control, and all samples were incubated for 24 h at 37° C with 5% CO2. Following incubation, the medium was immediately changed to 10 μL of the PrestoBlue reagent in 90 μL of the RPMI medium. As resorufin began to form, the color of the plates changed from blue to purple after being incubated for another one to two hours. Using a microplate reader to measure absorbance at 570 nm and 600 nm, the concentration required to inhibit growth by 50% was calculated as the IC50 value. […] The results of each test and analysis were averaged after being run twice.

In data set [2] the test system is CV-1 normal kidney fibroblast cell line. Briefly: cells. On the procedure: as §1, §2
The subject of data set [3] is B16-F10 melanoma cell line. In words: PrestoBlue cytotoxicity assay against B16-F10 melanoma cells. The settings on record: 24 h incubation, run twice and averaged. On the procedure: as §1, §2
Where [4] appears, read: Homo sapiens, MCF7, read-out: IC50 for MCF-7.
[5] abbreviates: Homo sapiens, MCF7, read-out: IC50 for MCF-7 (μg/mL).
The mark [6] stands for this setting: Fibroblast, CV-1 normal cells, PrestoBlue, 24 h incubation, run twice and averaged, read-out: IC50 for CV-1.
[7] abbreviates: Fibroblast, CV-1 normal cells, PrestoBlue, 24 h incubation, run twice and averaged, read-out: IC50 for CV-1 (μg/mL).
The mark [8] stands for this setting: Mus musculus, read-out: IC50 for B16-F10.
The mark [9] stands for this setting: Mus musculus, read-out: IC50 for B16-F10 (μg/mL).

For the molecule `N.N.[Cl][Pt][Cl]` [Cisplatin, cisplatin, reference compound], in data set [1], the “IC50 for MCF-7” value was 53.00 µg/mL. Besides, the IC50 in data set [1] (read-out: IC50 for MCF-7) worked out at 176 µM; in data set [2] (CV-1 normal cells, PrestoBlue, 24 h incubation, run twice and averaged, read-out: IC50 for CV-1), 143 µM; in data set [3] (read-out: IC50 for B16-F10), 143 µM. The “IC50 for CV-1” value in data set [2] (CV-1 normal cells, PrestoBlue, 24 h incubation, run twice and averaged) worked out at 43.00 µg/mL. In data set [3], the “IC50 for B16-F10” value worked out at 43.00 µg/mL.

For the molecule `CC(C)(O)[C@@H]1CC[C@@](C)(C2CC[C@]3(C)C2CCC2[C@@]4(C)CC[C@@H](O)C(C)(C)C4CC[C@]23C)O1` (stereo partly drawn) [Compound 1, 20S,24S-epoxy-3α,25-dihydroxy-dammarane], the IC50 in data set [1] (setting [4]) turned out to be 142 µM; in data set [1] (setting [5]), 65.5 µg/mL; in data set [2] (setting [6]), 174 µM; in data set [2] (setting [7]), 80.1 µg/mL; in data set [3] (setting [8]), 97.3 µM; in data set [3] (setting [9]), 44.8 µg/mL.

With `C=C(CCC=C(C)C)C1CC[C@]2(C)C1CC[C@@H]1[C@@]3(C)CCC(=O)C(C)(C)C3CC[C@]12C` (stereo partly drawn) [Compound 2, dammaradienone], the IC50 in data set [1] (setting [4]) is 132 µM; in data set [1] (setting [5]), 56.1 µg/mL; in data set [2] (setting [6]) it was 195 µM; in data set [2] (setting [7]), 82.8 µg/mL; in data set [3] (setting [8]) it was 129 µM; in data set [3] (setting [9]) it was 54.8 µg/mL.

Regarding `CC(C)=CCC[C@](C)(O)C1CC[C@]2(C)C1CC[C@@H]1[C@@]3(C)CCC(=O)C(C)(C)C3CC[C@]12C` (stereo partly drawn) [Compound 3, 20S-hydroxy-dammar-24-en-3-on], the IC50 in data set [1] (setting [4]) is over 300 µM; in data set [1] (setting [5]) it was 142 µg/mL; in data set [2] (setting [6]), over 300 µM; in data set [2] (setting [7]), over 300 µg/mL; in data set [3] (setting [8]), 111 µM; in data set [3] (setting [9]) it was 49.1 µg/mL. In addition, the “cell death based on morphological observation” value in data set [2] is on record as “no cell death at all concentration levels”.

Regarding `C=C(C)[C@@H]1CC[C@]2(C)[C@H](CC[C@@H]3[C@@H]([C@]4(C)CC[C@@H](C(C)(C)O)O4)CC[C@]32C)[C@@]1(C)CCC(=O)O` [Compound 4, eichlerianic acid], the IC50 in data set [1] (setting [4]) is over 300 µM; in data set [1] (setting [5]) it was over 300 µg/mL; in data set [2] (setting [6]), 288 µM; in data set [2] (setting [7]), 137 µg/mL; in data set [3] (setting [8]), over 300 µM; in data set [3] (setting [9]) it was 275 µg/mL.

Take `COC1CC[C@@](C)(C2CC[C@]3(C)C2CCC2[C@@]4(C)CCC(=O)C(C)(C)C4CC[C@]23C)O1` (stereo partly drawn) [Compound 5, (20S,24RS)-23,24-epoxy-24-methoxy-25,26,27-tris-nor dammar-3-one]: the IC50 is 133 µM in data set [1] (setting [4]); 57.3 µg/mL in data set [1] (setting [5]); over 300 µM in data set [2] (setting [6]); over 300 µg/mL in data set [2] (setting [7]); 105 µM in data set [3] (setting [8]); 45.4 µg/mL in data set [3] (setting [9]). Further, in data set [2], the “cell death based on morphological observation” value was “no cell death at all concentration levels”.

For `CC(=O)O[C@@H]1CC[C@@]2(C)C(CC[C@]3(C)C2CCC2C([C@]4(C)CCC(=O)O4)CC[C@]23C)C1(C)C` (stereo partly drawn) [Compound 6, 3α-acetyl-cabraleahydroxy lactone], the IC50 in data set [1] (setting [4]) stood at 274 µM; in data set [1] (setting [5]), 126 µg/mL; in data set [2] (setting [6]), 285 µM; in data set [2] (setting [7]), 131 µg/mL; in data set [3] (setting [8]), 274 µM; in data set [3] (setting [9]), 126 µg/mL.

With `CC(=O)O[C@@H]1CC[C@@]2(C)C(CC[C@]3(C)C2CCC2C([C@]4(C)CC[C@@H](C(C)(C)O)O4)CC[C@]23C)C1(C)C` (stereo partly drawn) [Compound 7, 3α-acetyl-20S,24S-epoxy-3α,25-dihydroxydammarane], the IC50 is 195 µM in data set [1] (setting [4]); 97.9 µg/mL in data set [1] (setting [5]); over 300 µM in data set [2] (setting [6]); over 300 µg/mL in data set [2] (setting [7]); 158 µM in data set [3] (setting [8]); 79.4 µg/mL in data set [3] (setting [9]). Besides, in data set [2], the “cell death based on morphological observation” value was “no cell death at all concentration levels”.
